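The compound was tested at five concentrations on cells cultured in 96-well plates, with a 48-hour exposure period. TGI marks complete inhibition of growth.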
Tests used:
Assay in all cases: growth of human tumour cells (NCI), 48 h
DMS 273 small cell lung = test system: DMS 273 small cell lung
A498 renal = test system: A498 renal
RPMI-8226 leukemia = test system: RPMI-8226 leukemia
SK-MEL-28 melanoma = test system: SK-MEL-28 melanoma
NCI-H460 lung = test system: NCI-H460 lung
TK-10 renal = test system: TK-10 renal
M14 melanoma = test system: M14 melanoma
SW-620 colon = test system: SW-620 colon
CCRF-CEM leukemia = test system: CCRF-CEM leukemia
NCI-H522 lung = test system: NCI-H522 lung
HOP-92 NSCLC = test system: HOP-92 NSCLC
RXF 393 renal = test system: RXF 393 renal
HCT-116 colon = test system: HCT-116 colon
SN12C renal = test system: SN12C renal
KM20L2 colon = test system: KM20L2 colon
RXF-631 renal = test system: RXF-631 renal
SK-OV-3 ovarian = test system: SK-OV-3 ovarian
SF-295 CNS = test system: SF-295 CNS
ACHN renal = test system: ACHN renal
XF 498 CNS = test system: XF 498 CNS
U251 CNS = test system: U251 CNS
HCT-15 colon = test system: HCT-15 colon
MOLT-4 leukemia = test system: MOLT-4 leukemia
A549 NSCLC = test system: A549 NSCLC
SK-MEL-5 melanoma = test system: SK-MEL-5 melanoma
EKVX NSCLC = test system: EKVX NSCLC
SF-268 CNS = test system: SF-268 CNS
UO-31 renal = test system: UO-31 renal
OVCAR-8 ovarian = test system: OVCAR-8 ovarian
K-562 leukemia = test system: K-562 leukemia
LOX IMVI melanoma = test system: LOX IMVI melanoma
SF-539 CNS = test system: SF-539 CNS
HOP-18 NSCLC = test system: HOP-18 NSCLC
DLD-1 colon = test system: DLD-1 colon
HL-60(TB) leukemia = test system: HL-60(TB) leukemia
LXFL 529 NSCLC = test system: LXFL 529 NSCLC
NCI-H23 lung = test system: NCI-H23 lung
HOP-62 NSCLC = test system: HOP-62 NSCLC
COLO 205 colon = test system: COLO 205 colon
DMS 114 small cell lung = test system: DMS 114 small cell lung
HT29 colon = test system: HT29 colon
OVCAR-5 ovarian = test system: OVCAR-5 ovarian
SK-MEL-2 melanoma = test system: SK-MEL-2 melanoma
UACC-62 melanoma = test system: UACC-62 melanoma
OVCAR-4 ovarian = test system: OVCAR-4 ovarian
IGROV1 ovarian = test system: IGROV1 ovarian
MALME-3M melanoma = test system: MALME-3M melanoma
SNB-78 CNS = test system: SNB-78 CNS
HCC-2998 colon = test system: HCC-2998 colon
KM12 colon = test system: KM12 colon
OVCAR-3 ovarian = test system: OVCAR-3 ovarian
SNB-19 CNS = test system: SNB-19 CNS
SNB-75 CNS = test system: SNB-75 CNS
NCI-H226 lung = test system: NCI-H226 lung
786-0 renal = test system: 786-0 renal
M19-MEL melanoma = test system: M19-MEL melanoma
UACC-257 melanoma = test system: UACC-257 melanoma
CAKI-1 renal = test system: CAKI-1 renal

Nc1ccn(C2OC(C(O)CO)C(O)C2O)c(=O)n1 (configuration not stated)
TGI (DMS 273 small cell lung): > 100 µM
TGI (A498 renal): > 100 µM
TGI (RPMI-8226 leukemia): > 100 µM
TGI (SK-MEL-28 melanoma): > 100 µM
TGI (NCI-H460 lung): > 100 µM
TGI (TK-10 renal): > 100 µM
TGI (M14 melanoma): > 100 µM
TGI (SW-620 colon): > 100 µM
TGI (CCRF-CEM leukemia): > 100 µM
TGI (NCI-H522 lung): > 100 µM
TGI (HOP-92 NSCLC): > 100 µM
TGI (RXF 393 renal): > 100 µM
TGI (HCT-116 colon): > 100 µM
TGI (SN12C renal): > 100 µM
TGI (KM20L2 colon): > 100 µM
TGI (RXF-631 renal): > 100 µM
TGI (SK-OV-3 ovarian): > 100 µM
TGI (SF-295 CNS): > 100 µM
TGI (ACHN renal): > 100 µM
TGI (XF 498 CNS): > 100 µM
TGI (U251 CNS): > 100 µM
TGI (HCT-15 colon): > 100 µM
TGI (MOLT-4 leukemia): > 100 µM
TGI (A549 NSCLC): > 100 µM
TGI (SK-MEL-5 melanoma): > 100 µM
TGI (EKVX NSCLC): > 100 µM
TGI (SF-268 CNS): > 100 µM
TGI (UO-31 renal): > 100 µM
TGI (OVCAR-8 ovarian): > 100 µM
TGI (K-562 leukemia): > 100 µM
TGI (LOX IMVI melanoma): > 100 µM
TGI (SF-539 CNS): > 100 µM
TGI (HOP-18 NSCLC): > 100 µM
TGI (DLD-1 colon): > 100 µM
TGI (HL-60(TB) leukemia): > 100 µM
TGI (LXFL 529 NSCLC): > 100 µM
TGI (NCI-H23 lung): > 100 µM
TGI (HOP-62 NSCLC): > 100 µM
TGI (COLO 205 colon): > 100 µM
TGI (DMS 114 small cell lung): > 100 µM

Cc1ccc(NC(=O)CCc2nnc(N)o2)cc1
TGI (HT29 colon): > 100 µM
TGI (DMS 273 small cell lung): > 100 µM
TGI (OVCAR-5 ovarian): > 100 µM
TGI (A498 renal): > 100 µM
TGI (RPMI-8226 leukemia): > 100 µM
TGI (SK-MEL-2 melanoma): > 100 µM
TGI (SK-MEL-28 melanoma): > 100 µM
TGI (NCI-H460 lung): > 100 µM
TGI (TK-10 renal): > 100 µM
TGI (M14 melanoma): > 100 µM
TGI (SW-620 colon): > 100 µM
TGI (CCRF-CEM leukemia): > 100 µM
TGI (NCI-H522 lung): > 100 µM
TGI (UACC-62 melanoma): > 100 µM
TGI (HOP-92 NSCLC): > 100 µM
TGI (RXF 393 renal): > 100 µM
TGI (HCT-116 colon): > 100 µM
TGI (SN12C renal): > 100 µM
TGI (KM20L2 colon): > 100 µM
TGI (OVCAR-4 ovarian): > 100 µM
TGI (RXF-631 renal): > 31.6 µM
TGI (SK-OV-3 ovarian): > 100 µM
TGI (SF-295 CNS): > 100 µM
TGI (IGROV1 ovarian): > 100 µM
TGI (MALME-3M melanoma): > 100 µM
TGI (ACHN renal): > 100 µM
TGI (XF 498 CNS): > 100 µM
TGI (U251 CNS): > 100 µM
TGI (HCT-15 colon): > 100 µM
TGI (SNB-78 CNS): > 100 µM
TGI (HCC-2998 colon): > 100 µM
TGI (KM12 colon): > 100 µM
TGI (MOLT-4 leukemia): > 100 µM
TGI (A549 NSCLC): > 100 µM
TGI (SK-MEL-5 melanoma): > 100 µM
TGI (EKVX NSCLC): > 100 µM
TGI (OVCAR-3 ovarian): > 100 µM
TGI (SNB-19 CNS): > 100 µM
TGI (SF-268 CNS): > 100 µM
TGI (UO-31 renal): > 100 µM
TGI (OVCAR-8 ovarian): > 100 µM
TGI (K-562 leukemia): > 100 µM
TGI (SNB-75 CNS): > 100 µM
TGI (LOX IMVI melanoma): > 100 µM
TGI (NCI-H226 lung): > 100 µM
TGI (SF-539 CNS): > 100 µM
TGI (DLD-1 colon): > 100 µM
TGI (HL-60(TB) leukemia): > 91.7 µM
TGI (LXFL 529 NSCLC): > 100 µM
TGI (NCI-H23 lung): > 100 µM
TGI (786-0 renal): > 100 µM
TGI (HOP-62 NSCLC): > 100 µM
TGI (M19-MEL melanoma): > 100 µM
TGI (UACC-257 melanoma): > 100 µM
TGI (COLO 205 colon): > 100 µM
TGI (DMS 114 small cell lung): > 100 µM
TGI (CAKI-1 renal): > 100 µM
